Results as given in PubChem BioAssay AID1645866 (Buhrlage Lab, Dana-Farber Cancer Institute and Novartis …, 2021).
Active and inactive are the calls of the source.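 The calls were made as follows: active = in confirmatory dose-response testing, peak deubiquitinase inhibition of 30% or more; inactive = the rest.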

Each molecule was assayed against Ubiquitin carboxyl-terminal hydrolase 28 (Homo sapiens) (UniProt Q96RU2) (assay: Concentration-response biochemical assay confirming initial hits as inhibitors of ubiquitin-specific protease 28 (AID 1645866)). Details: purified USP28, ubiquitin-rhodamine fluorescence, 30 min.
Chain of Ubiquitin carboxyl-terminal hydrolase 28 (Homo sapiens) (Q96RU2 whole entry, looked up): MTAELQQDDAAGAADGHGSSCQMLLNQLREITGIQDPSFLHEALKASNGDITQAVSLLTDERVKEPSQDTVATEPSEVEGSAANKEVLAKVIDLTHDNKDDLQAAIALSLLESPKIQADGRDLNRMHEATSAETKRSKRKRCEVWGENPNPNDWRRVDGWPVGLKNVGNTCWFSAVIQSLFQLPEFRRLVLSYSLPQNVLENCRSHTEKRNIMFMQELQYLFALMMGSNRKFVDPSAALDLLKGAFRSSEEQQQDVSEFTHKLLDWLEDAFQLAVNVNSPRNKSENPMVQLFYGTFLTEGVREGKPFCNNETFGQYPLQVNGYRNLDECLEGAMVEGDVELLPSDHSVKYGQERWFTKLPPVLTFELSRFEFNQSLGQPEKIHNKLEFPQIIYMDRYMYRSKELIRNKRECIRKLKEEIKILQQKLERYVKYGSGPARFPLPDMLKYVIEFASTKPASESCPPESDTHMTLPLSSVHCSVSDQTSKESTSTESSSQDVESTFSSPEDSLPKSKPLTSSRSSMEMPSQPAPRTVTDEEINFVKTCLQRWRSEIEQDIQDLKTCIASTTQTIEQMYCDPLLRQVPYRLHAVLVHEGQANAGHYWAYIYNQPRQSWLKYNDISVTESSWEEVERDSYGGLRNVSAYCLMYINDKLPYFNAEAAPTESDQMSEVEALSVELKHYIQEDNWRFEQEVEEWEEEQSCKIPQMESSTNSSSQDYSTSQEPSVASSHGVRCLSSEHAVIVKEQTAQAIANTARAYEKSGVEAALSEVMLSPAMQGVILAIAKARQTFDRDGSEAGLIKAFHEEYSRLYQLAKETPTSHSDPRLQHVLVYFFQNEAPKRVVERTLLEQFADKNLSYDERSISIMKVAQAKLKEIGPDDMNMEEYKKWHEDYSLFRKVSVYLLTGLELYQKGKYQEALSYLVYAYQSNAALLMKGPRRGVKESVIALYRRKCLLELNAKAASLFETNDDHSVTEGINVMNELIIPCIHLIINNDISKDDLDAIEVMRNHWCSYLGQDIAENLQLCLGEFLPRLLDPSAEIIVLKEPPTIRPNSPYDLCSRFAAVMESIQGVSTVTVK
`O=C(NCc1nc2ccccc2[nH]1)c1cccc(S(=O)(=O)N2CCc3ccccc32)c1` showed an IC50 of 31.4 µM.
`CCOc1ccc(NC(=O)c2nc3c(=O)[nH]c4cc(C)ccc4n3n2)cc1` was tested, and the IC50 was 47.5 µM.
Molecule `Cc1ccc(NC(=O)c2sc(=S)n(CCc3ccccc3)c2N)cc1` has an IC50 of 9.8 µM.
`CCOc1ccccc1C(=O)Oc1ccc2c(C)cc(=O)oc2c1` showed an IC50 of 23.2 µM.
In the case of `CC(=O)c1ccc(Cc2ncc(C(F)(F)F)cc2Cl)s1`, the IC50 is reported as 6.83 µM.
In the case of `Cc1cccc(NC(=O)Cn2c(-c3cnccn3)nc(C)c(C)c2=O)c1C`, the IC50 is reported as > 50 µM (inactive).
For `CCOC(=O)c1ccc(-n2c(=O)c(C#N)cc3c(=O)n4ccccc4nc32)cc1`, the IC50 was > 50 µM (inactive).
With `O=C(Nc1ccc2c(c1)OCCO2)c1cc(CN2CCCC2)on1` the IC50 was 9.81 µM.
`O=C(Nc1nc2c(ccc3ccccc32)s1)c1cccc(Br)c1` showed an IC50 of 9.32 µM.
`Clc1ccc(C[n+]2cc(-c3ccc(Cl)cc3)n3c2CCC3)cc1` gave an IC50 of 13.6 µM.
In the case of `Cc1noc(-c2cccc(=O)n2CC(=O)Nc2ccc(C)c(C)c2)n1`, the IC50 is reported as 17.4 µM.
`CC1=C(C)C(c2c(-c3ccc(C)cc3)[nH]c3ccccc23)N(C(C)(C)C)C1=O` (configuration not stated) gave an IC50 of 2.25 µM.
With `O=C(CSc1ncnc2c1oc1ccccc12)Nc1ccc2c(c1)OCCO2` the IC50 was 17.1 µM.
With `COc1ncccc1CN1CCn2c(Cn3cncn3)cnc2C1C` (configuration not stated) the IC50 was > 50 µM (inactive).
`COc1ccc(CCNC(=O)CCCCn2c(=O)c3ccccc3n(Cc3cccc(Cl)c3)c2=O)cc1OC` showed an IC50 of 21.1 µM.
`COCCCn1c(C(=O)Nc2ccccc2OC)cc2c(=O)n3ccccc3nc21` was tested, and the IC50 was 29.9 µM.
Molecule `COc1ccc(NC(=O)c2ccc(-n3nnnc3SC)cc2)cc1Cl` has an IC50 of 31.1 µM.
With `COc1ccc(NC(=O)c2cc(-c3cccnc3)n[nH]2)cc1Cl` the IC50 was 1.27 µM.
For `COc1ccc(NC(=O)Cn2cc(C(=O)c3ccc(C)cc3)c(=O)c3ccccc32)cc1`, the IC50 was 2.67 µM.
`Cc1ccc(S(=O)(=O)Nc2ccccc2SCCS(=O)(=O)c2ccc(Cl)cc2)cc1` was tested, and the IC50 was > 50 µM (inactive).
With `Cc1ccc2nnc(-c3ccccc3)c(C(=O)N3CCN(c4ccccn4)CC3)c2c1` the IC50 was 35 µM.
`N#C/C(=C/c1sc(N2CCOCC2)nc1-c1ccccc1)c1ccccn1` was tested, and the IC50 was > 50 µM (inactive).
In the case of `O=S(=O)(c1ccccc1Cl)N1CCN(c2ccc3nnc(-c4ccco4)n3n2)CC1`, the IC50 is reported as > 50 µM (inactive).
Molecule `O=C(COc1ccc(S(=O)(=O)N2CCOCC2)cc1)N1CCC(Cc2ccccc2)CC1` has an IC50 of 12.2 µM.
`COc1ccc(-c2cc(C(C)=O)c(C)n2CCC(=O)Nc2ccc(OC)cc2OC)cc1` showed an IC50 of 43.1 µM.
`c1cncc(-c2nc(Nc3ccc4c(c3)OCCO4)c3ccccc3n2)c1` gave an IC50 of 34.9 µM.
`COCCCn1c(C(=O)NCCc2ccccc2)cc2c(=O)n3cccc(C)c3nc21` showed an IC50 of 42.1 µM.
In the case of `Nc1ncnc2c1ncn2[C@@H]1O[C@H](CO)C[C@@H]1O`, the IC50 is reported as 26.4 µM.
With `CC(C)(C)C(=O)C1C2C(=O)N(c3ccc4c(c3)OCO4)C(=O)C2C2c3ccccc3C=CN12` (configuration not stated) the IC50 was > 50 µM (inactive).
In the case of `Cc1cccc(Cl)c1NC(=O)Nc1ccc(NC(=O)c2ccccc2O)cc1`, the IC50 is reported as 27 µM.
Molecule `CCOC(=O)c1c(C)nc2n(Cc3ccccc3)c3ccccc3n12` has an IC50 of 21.7 µM.
Molecule `Cc1ccc(C(=O)Nc2cc3c4c(c2)CC(=O)N4CCC3)cc1` has an IC50 of 8.27 µM.
For `Cc1cccc(C(=O)N2CCN3Cc4ccccc4N(C)CC3C2)c1` (configuration not stated), the IC50 was > 50 µM (inactive).
Work on `O=C(Nc1nnc2n1CCCS2)c1cc2ccccc2o1` yielded an IC50 of 4.43 µM.
`Cc1nn(Cc2ccccc2)c(C)c1C(=O)NC1CCCc2ccccc21` (configuration not stated) was tested, and the IC50 was 5.14 µM.
With `Cc1cc(/C=C2/C(=N)N3C(c4ccccc4)=CSC3=NC2=O)c(C)n1-c1ccc(F)cc1` the IC50 was > 50 µM (inactive).
`Cc1ccc(C(=O)Nc2nc3n(n2)C(c2ccccc2)CC(=O)N3)cc1` (configuration not stated) was tested, and the IC50 was 19.4 µM.
For `COc1ccc(CNC(=O)CCc2nnc3n(Cc4ccccc4Cl)c(=O)c4ccccc4n23)cc1`, the IC50 was 2.18 µM.
For `O=C(Nc1ccc2c(c1)OCCO2)Nc1nnc(CC(=O)N2CCCCC2)s1`, the IC50 was 20.5 µM.
Work on `O=C(COc1ccc(F)cc1)Nc1cnc(-c2ccc(Cl)cc2)nc1` yielded an IC50 of 34.2 µM.
For `Cc1noc(C)c1S(=O)(=O)Nc1ccc(C(=O)Nc2ccc3c(c2)OCCO3)cc1`, the IC50 was 3.82 µM.
In the case of `O=C(CNc1nc(Nc2ccccc2F)nc(Nc2ccccc2F)n1)Nc1ccccc1`, the IC50 is reported as 27 µM.
